# Experimental data taken from the supplement of paper PMC10307832.
# Key:
# Assay in all cases: relative viability (nuclei count vs DMSO), 5 days (fraction); higher = more cells survive
# Ibrutinib + Trametinib = compound: C=CC(=O)N1CCC[C@@H](n2nc(-c3ccc(Oc4ccccc4)cc3)c3c(N)ncnc32)C1 [Ibrutinib] + CC(=O)Nc1cccc(-n2c(=O)n(C3CC3)c(=O)c3c(Nc4ccc(I)cc4F)n(C)c(=O)c(C)c32)c1 [Trametinib] (partner 0.02 µM)
# Summary of the method: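 Lung cancer cell lines in 1536-well plates were dosed by pin tool the day after seeding, either with one drug alone or with a fixed anchor-drug dose plus five library-drug doses (not always all listed) in √10 steps. After 5 days, cells were fixed and their nuclei stained in one step (final 0.05% Triton X-100, 1% formaldehyde, 1 ug/ml Hoechst), then counted on 4× images. Relative viability is the nuclei count in treated wells divided by that in vehicle wells. Values are medians of duplicate plates.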
# BMX-IN-1 = compound: C=CC(=O)Nc1cc(-n2c(=O)ccc3cnc4ccc(-c5ccc(NS(C)(=O)=O)cc5)cc4c32)ccc1C [BMX-IN-1]
# Summary of the method: (§1)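 Nuclei counted with MetaXpress define viability as the ratio of treated to vehicle wells, given as a median across plates. The lung cancer cell lines were in 1536-well plates, pinned with five √10-spaced library-drug doses and imaged at 4× after 5 days and Hoechst staining. Plates passed with control CV below 25% and at least one doubling.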
# PAC-1 = compound: C=CCc1cccc(/C=N/NC(=O)CN2CCN(Cc3ccccc3)CC2)c1O [PAC-1]
# Summary of the method: as §1
# Ibrutinib = compound: C=CC(=O)N1CCC[C@@H](n2nc(-c3ccc(Oc4ccccc4)cc3)c3c(N)ncnc32)C1 [Ibrutinib]
# Summary of the method: as §1
Cell Line,relative viability (Ibrutinib + Trametinib; first compound 0.005 µM),relative viability (Ibrutinib + Trametinib; first compound 0.01581 µM),relative viability (Ibrutinib + Trametinib; first compound 0.05 µM),relative viability (Ibrutinib + Trametinib; first compound 0.1581 µM),relative viability (Ibrutinib + Trametinib; first compound 0.5 µM),relative viability (BMX-IN-1; 0.02 µM),relative viability (BMX-IN-1; 0.2 µM),relative viability (BMX-IN-1; 0.6325 µM),relative viability (BMX-IN-1; 2 µM),relative viability (PAC-1; 0.02 µM),relative viability (PAC-1; 0.06325 µM),relative viability (PAC-1; 0.2 µM),relative viability (PAC-1; 2 µM),relative viability (Ibrutinib; 0.005 µM),relative viability (Ibrutinib; 0.01581 µM),relative viability (Ibrutinib; 0.05 µM),relative viability (Ibrutinib; 0.1581 µM),relative viability (Ibrutinib; 0.5 µM)
NCI-H650,0.921,0.967,1.01,1.06,0.976,0.905,1.01,1.02,0.951,0.976,0.966,0.891,0.872,0.772,0.991,0.802,1.05,1.01
NCI-H2228,0.379,0.488,0.412,0.55,0.298,1.2,1.18,0.975,1.05,0.98,1.15,0.924,1.09,1.01,0.752,1.1,0.872,0.868
EPLC-272H,–,0.293,0.311,0.277,0.243,1.01,0.954,0.874,0.952,0.877,1.04,0.941,0.929,0.681,0.859,0.677,0.686,0.664
SK-LU-1,0.393,0.501,0.472,0.536,0.454,1.22,1.23,1.16,1.1,1,1.02,0.975,0.999,0.944,0.954,0.987,1.02,–
PC-3 [JPC-3],0.617,0.592,0.617,0.754,0.456,1.08,1.12,1.11,1.06,1.06,1.08,1.05,1.03,1.03,0.97,0.906,0.912,0.638
ChaGo-K-1,0.907,0.879,0.922,0.857,0.854,1.14,1.05,0.963,1.02,1.05,1.01,1,0.929,0.953,0.95,0.958,0.913,1.02
NCI-H3122,0.23,0.244,0.251,0.223,0.221,1.07,1.06,1.04,1.04,0.991,0.989,0.965,0.965,1.05,0.989,0.996,0.895,1
NCI-H1703,–,–,–,–,–,1.1,0.914,0.862,0.805,0.993,0.903,0.955,0.962,–,0.864,0.916,0.879,0.769
NCI-H2126,0.5,0.474,0.522,0.559,0.466,1.09,1.05,1.08,1.02,0.938,0.948,1.02,1.06,0.68,0.969,0.972,0.9,0.887
NCI-H1993,0.487,0.571,0.518,0.617,0.398,1.01,1.09,0.973,0.882,0.911,0.986,0.891,0.963,0.617,0.822,–,0.733,0.61
NCI-H1793,0.485,0.423,0.436,0.419,0.401,1.13,0.995,1.13,1.05,0.847,0.934,0.872,1.01,–,0.831,0.732,0.631,0.538
NCI-H441,0.423,0.441,0.524,0.344,0.342,1.19,1.31,1.28,1.17,1.03,1.09,0.997,1.04,1.11,0.947,1.26,1.16,1.13
H3255,0.461,0.531,–,0.624,0.378,1.08,0.974,1.12,1.02,1.07,1.01,0.942,0.909,0.912,0.858,0.745,0.945,0.547
NCI-H2087,0.166,0.196,0.199,–,0.2,1.03,1.14,1.14,1.15,0.872,1.06,0.929,1.04,1.13,0.931,1.19,–,0.99
NCI-H661,0.509,0.478,0.436,0.532,0.433,0.967,1.03,1.01,0.933,0.977,0.981,0.965,0.959,0.95,0.957,0.868,0.96,0.601
NCI-H1563,–,–,–,–,–,0.955,0.943,1.04,0.964,0.953,1.03,1.04,0.94,0.922,0.893,1,0.977,0.861
NCI-H1623,–,–,–,–,–,0.995,1.01,0.988,0.882,0.966,0.891,0.95,0.926,0.894,0.842,0.672,0.858,0.299
IA-LM,–,–,–,–,–,1,0.997,1.04,1.02,1.09,1.05,0.89,1.03,0.794,1,1.06,1.05,1.04
EBC-1,–,–,–,–,–,1.06,0.952,1.14,0.964,1.04,0.932,0.949,1,1.09,0.947,0.922,0.97,1.06
